Type in all cases: cell-based
For series [1], the system named is eIF3η and PABPC1 puncta in U2OS cells. Description: Immunofluorescence of additional stress granule markers after preincubation. To be noted: 50 μM pretreatment, 250 μM NaAsO2 for 30 min. The method, then:
(§1) U2OS cells or U2OS cells stably expressing G3BP1-GFP were seeded in four-well Lab-Tek II Chambered Coverglass (1055360; Thermo Fisher Scientific). For preincubation experiments, cells were treated with 50 μM G3I compound for 20 min or 24 h, followed by 250 μM NaAsO2 and 50 μM G3I compound for 30 min. For posttreatment, cells were treated with 250 μM NaAsO2 for 30 min, followed by treatment with 250 μM NaAsO2 and 50 μM G3I compound for 5 min. Cells were then washed twice with PBS and fixed with 4% PFA in PBS for 10 min. Cells were then washed three times with PBS (5 min between each wash), permeabilized with 0.5% Triton X-100 in PBS for 10 min, and washed twice with PBS. Next, cells were blocked for 1 h with 3% BSA in PBS at room temperature, followed by incubation with primary antibodies diluted in 3% BSA overnight at 4°C. Cells were then washed three times with PBS (5 min between each wash) and incubated with secondary antibodies and Hoechst diluted in 3% BSA at room temperature for 1 h. Cells were then washed three times with PBS (5 min between each wash) and imaged. […]

For series [2], the system named is U2OS cells. As to the kind of experiment: Cytotoxicity assay (CellTiter-Glo, ATP levels). To be noted: 24 h, ATP levels by luciferase signal. The method, then: U2OS (HTB-96), HEK293T (CRL-3216), and HeLa (CCL-2) cells were originally purchased from ATCC and periodically authenticated by short tandem repeat (STR) profiling. Cells were grown in Dulbecco’s modified Eagle’s medium (DMEM) supplemented with 10% fetal bovine serum (FBS), 1% penicillin/streptomycin, and 1% L-glutamine. Cells were counted using ADAM-CellT (NanoEntek), plated, and transfected using either Lipofectamine 3000 (L3000008; Thermo Fisher Scientific) or Viafect (E4981; Promega) for transient overexpression according to the manufacturer’s instructions. Cytotoxicity was assayed using CellTiter-Glo 2.0 reagent (Promega) according to the manufacturer’s instructions.

The test system of series [3] is stress granule formation in HeLa cells stably expressing G3BP1-GFP. Description: Preincubation, arsenite-induced stress granule formation, live cell imaging in HeLa. The settings on record: Homo sapiens, 20 min pretreatment, 250 μM NaAsO2, read-out: inhibition of stress granule formation compared with inactive enantiomer. The method, then: For preincubation of compounds, U2OS or HeLa cells stably expressing G3BP1-GFP or CRISPR-modified cells expressing TDP-43-GFP/G3BP1-GFP were seeded into eight-well Lab-Tek chambered cover glass (Nunc). At least 20 min prior to the experiment, 1 ml FluoroBrite DMEM media (Gibco) supplemented with 10% FBS and 4 mM L-glutamine was combined with 0.1% DMSO or G3I compound (5, 10, or 50 μM). This solution was vortexed for 5 s, added to the cells at 250 μl per well, and left to incubate on the microscope for 20 min. Conditions were maintained at 37°C and 5% CO2 using a Bold Line Cage Incubator (Okolab) and an objective heater (Bioptechs). During this incubation time, 5 xy fields were stored per condition, with each field having ∼20–30 cells within it. After the 20-min incubation, 250 μl of 500 μM or 1 mM (2×) sodium arsenite (Sigma-Aldrich) diluted in the FluoroBrite media with an appropriate amount of G3I compound or DMSO was added to the sample. Imaging began immediately after, with images at each xy field being taken every 1 min. For heat shock experiments, U2OS G3BP1-GFP-expressing cells were seeded into a 35-mm glass bottom dish (MatTek). Prior to the experiment, 1.5 ml FluoroBrite DMEM media (Gibco) supplemented with 10% FBS and 4 mM L-glutamine was combined with 0.1% DMSO or 50 μM G3I compound. The sample was incubated on the environmentally controlled microscope for 20 min. […]

Series [4] deals with TDP-43 accumulation in stress granules in U2OS cells. Description: TDP-43 immunofluorescence after preincubation and arsenite. To be noted: 50 μM pretreatment, 250 μM NaAsO2 for 30 min. The method, then: as §1

This is an account of results in article PMC10824102, “Identification of small molecule inhibitors of G3BP-driven stress granule formation” (The Journal of Cell Biology, 2024).

The term inhibition denotes the relative decrease from the control value, in per cent. As to `COCCC(NC(=O)C(C)NC(=O)C(NC(=O)C(NC(=O)C(F)CC(C)(C)C)C(C)(C)O)C(C)c1ccccc1)C(=O)N(C)Cc1ccccc1` (centres unmarked) [G3Ia], the “eIF3η and PABPC1 puncta” value in series [1] was “reduced eIF3η and PABPC1 puncta”. For the same molecule, in series [2], the cell-based toxicity result was “do not appear to induce cellular toxicity or growth phenotypes”. In series [3], the inhibition at 50 µM was ~72%. Besides, in series [4], the “TDP-43 accumulation in stress granules” value is “not”.
`CC(NC(=O)C(NC(=O)C(NC(=O)CCC(C)(C)C)C(C)(C)O)C(C)c1ccccc1)C(=O)N1CCCC1c1ccccc1` (centres unmarked) [G3Ib]: the “eIF3η and PABPC1 puncta” value in series [1] was “reduced eIF3η and PABPC1 puncta”. The cell-based toxicity entry in series [2] is recorded as “do not appear to induce cellular toxicity or growth phenotypes”. Moreover, the inhibition at 50 µM in series [3] is ~82%. For the same molecule, the “TDP-43 accumulation in stress granules” value in series [4] was “not”.
